This note sets out measurements from ChEMBL document CHEMBL1201862, “PubChem BioAssay data set” (2004).

Activity calls are given as the source filed them.

In assay [1] the target is T1, Tyrosine-protein phosphatase non-receptor type 7 (Homo sapiens, UniProt P35236).
T1 sequence (P35236 whole entry): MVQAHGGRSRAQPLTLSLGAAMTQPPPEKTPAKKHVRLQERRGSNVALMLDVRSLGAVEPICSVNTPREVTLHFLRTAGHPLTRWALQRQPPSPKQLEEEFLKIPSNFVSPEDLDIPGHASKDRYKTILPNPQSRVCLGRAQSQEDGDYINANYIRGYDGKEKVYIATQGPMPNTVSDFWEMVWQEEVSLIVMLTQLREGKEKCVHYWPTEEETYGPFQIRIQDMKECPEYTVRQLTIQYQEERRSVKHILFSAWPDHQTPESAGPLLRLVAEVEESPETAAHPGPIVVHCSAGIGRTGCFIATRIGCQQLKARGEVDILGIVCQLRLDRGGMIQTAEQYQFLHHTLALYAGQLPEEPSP
The experiment in a line: redox-active compounds inhibiting HePTP phosphatase – biochemical, fluorescence, mechanism study (AID 2068). In kind it is functional.

Assay [2] addresses Arf-GAP with SH3 domain, ANK repeat and PH domain-containing protein 1 (Homo sapiens, UniProt Q9ULH1). In kind it is functional.
The target of assay [3] is T2, Carboxy-terminal domain RNA polymerase II polypeptide A small phosphatase 1 (Homo sapiens, UniProt Q9GZU7).
T2 sequence (Q9GZU7 whole entry): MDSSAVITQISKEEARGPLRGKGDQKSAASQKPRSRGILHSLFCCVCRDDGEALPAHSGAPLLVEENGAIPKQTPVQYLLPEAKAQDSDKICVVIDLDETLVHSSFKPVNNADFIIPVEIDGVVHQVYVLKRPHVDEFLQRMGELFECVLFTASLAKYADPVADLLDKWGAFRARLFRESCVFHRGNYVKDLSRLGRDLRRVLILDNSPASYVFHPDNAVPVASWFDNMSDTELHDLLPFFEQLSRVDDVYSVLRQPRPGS
Put plainly: CTDSP1 inhibitors, concentration-response, biochemical, absorbance readout, ultra-high-throughput screen actives (AID 540297). The format is functional.

Assay [4] addresses Dual specificity protein phosphatase 6 (Rattus norvegicus, UniProt Q64346). The format is functional.
Assay [5] has as its target T1, Tyrosine-protein phosphatase non-receptor type 7. The experiment in a line: inhibition of hematopoietic tyrosine phosphatase HePTP – biochemical, set 2, SAR follow-up (AID 449736). The format is functional.
Assay [6] addresses Dual specificity protein phosphatase 3 (Homo sapiens, UniProt P51452). The experiment in a line: SAR VHR1 Fluorescent Assay for In Vitro dose response studies Set 2. [Related pubchem assays (depositor defined):AID1654, AID1661, AID1878]. The format is functional.
Assay [7] addresses T3, Tyrosine-protein phosphatase non-receptor type 12 (Homo sapiens, UniProt Q05209).
T3 sequence (Q05209 whole entry): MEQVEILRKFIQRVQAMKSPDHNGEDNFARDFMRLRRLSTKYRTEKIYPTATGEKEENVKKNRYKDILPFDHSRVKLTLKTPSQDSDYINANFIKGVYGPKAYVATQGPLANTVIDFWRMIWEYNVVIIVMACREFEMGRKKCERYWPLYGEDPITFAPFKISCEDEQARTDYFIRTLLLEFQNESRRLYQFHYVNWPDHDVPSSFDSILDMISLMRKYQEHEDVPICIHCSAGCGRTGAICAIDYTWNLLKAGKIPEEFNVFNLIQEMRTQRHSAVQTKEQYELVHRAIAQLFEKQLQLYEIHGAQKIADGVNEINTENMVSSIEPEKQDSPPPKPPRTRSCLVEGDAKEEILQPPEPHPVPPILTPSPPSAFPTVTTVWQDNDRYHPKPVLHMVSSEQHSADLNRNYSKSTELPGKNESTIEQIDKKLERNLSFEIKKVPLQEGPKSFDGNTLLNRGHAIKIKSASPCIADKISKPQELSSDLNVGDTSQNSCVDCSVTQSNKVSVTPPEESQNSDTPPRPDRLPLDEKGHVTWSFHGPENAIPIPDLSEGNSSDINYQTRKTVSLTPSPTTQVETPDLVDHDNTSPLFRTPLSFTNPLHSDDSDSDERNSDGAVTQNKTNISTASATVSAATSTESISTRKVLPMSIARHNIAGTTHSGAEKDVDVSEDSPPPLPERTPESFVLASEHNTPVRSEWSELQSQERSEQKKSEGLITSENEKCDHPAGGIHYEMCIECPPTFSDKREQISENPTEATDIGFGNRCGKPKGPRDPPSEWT
The experiment in a line: SAR Selectivity Analysis of small molecule inhibitors of PEST using pCAP in a fluorescence assay. [Related pubchem assays (depositor defined):AID1779, AID1784, AID2135]. In kind it is functional.

Assay [8] concerns the target T4, Tyrosine-protein phosphatase non-receptor type 22 (Homo sapiens, UniProt Q9Y2R2).
T4 sequence (Q9Y2R2 whole entry): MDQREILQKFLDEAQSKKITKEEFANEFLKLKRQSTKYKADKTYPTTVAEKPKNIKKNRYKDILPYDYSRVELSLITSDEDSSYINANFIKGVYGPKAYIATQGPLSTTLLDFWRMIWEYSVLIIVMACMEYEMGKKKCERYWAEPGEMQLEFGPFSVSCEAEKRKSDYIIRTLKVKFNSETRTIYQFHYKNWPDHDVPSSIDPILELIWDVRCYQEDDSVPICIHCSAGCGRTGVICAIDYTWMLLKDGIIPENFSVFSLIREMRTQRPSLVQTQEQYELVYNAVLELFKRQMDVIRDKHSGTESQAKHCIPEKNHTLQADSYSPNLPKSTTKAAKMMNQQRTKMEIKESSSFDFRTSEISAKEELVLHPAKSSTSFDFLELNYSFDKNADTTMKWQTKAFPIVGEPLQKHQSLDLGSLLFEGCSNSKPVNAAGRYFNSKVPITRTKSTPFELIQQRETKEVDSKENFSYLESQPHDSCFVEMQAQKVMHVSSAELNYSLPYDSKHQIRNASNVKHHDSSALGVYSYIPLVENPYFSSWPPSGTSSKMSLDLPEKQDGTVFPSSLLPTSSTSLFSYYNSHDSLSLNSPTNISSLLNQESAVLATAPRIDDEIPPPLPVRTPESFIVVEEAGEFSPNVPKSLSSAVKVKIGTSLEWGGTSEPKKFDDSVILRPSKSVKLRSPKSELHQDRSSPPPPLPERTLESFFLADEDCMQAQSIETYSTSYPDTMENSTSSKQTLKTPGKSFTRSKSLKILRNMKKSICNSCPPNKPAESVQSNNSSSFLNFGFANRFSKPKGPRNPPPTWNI
Put plainly: inhibition of lymphoid tyrosine phosphatase LYP – biochemical, pCAP fluorogenic substrate, fluorescence, set 3, SAR follow-up (AID 449727). In kind it is functional.

Assay [9] deals with T5, SUMO-activating enzyme (Homo sapiens, UniProt Q9UBT2). Put plainly: blockers of SAE1/SAE2–UBC9 SUMO transfer – biochemical, HTRF, uHTS, primary screen (AID 2006). In kind it is protein-complex assay.
In assay [10] the target is T5, SUMO-activating enzyme. The experiment in a line: blockers of UBC9-mediated SUMO conjugation – biochemical, AlphaScreen, SUMOylation inhibitor project, confirmation (AID 2018). In kind it is functional. For orientation: Bead proximity is the source of the signal in Alpha formats.
In assay [11] the target is T4, Tyrosine-protein phosphatase non-receptor type 22. Put plainly: SAR LYP1 Fluorescent Assay using OMFP substrate for In Vitro dose response studies - Set 3. [Related pubchem assays (depositor defined):AID1779, AID1784, AID2140, AID2686]. In kind it is functional.
The subject of the next assay is Jurkat. Put plainly: SAR Analysis of small molecule inhibitors of […] specific antigen receptor-induced NF-kB activation in a Jurkat cell line using a luminescence assay - Set 3. [Related pubchem assays (depositor defined):AID435022, AID435025, AID465]. The format is functional, cell-based. Particulars: Homo sapiens.
For assay [12], the system named is HEK293. Put plainly: HEK293T cell viability loss, resazurin readout – resazurin fluorescence, cytotoxicity control for NF-kB activator project, SAR follow-up (AID 493251). The format is functional, cell-based. Particulars: Homo sapiens. In general terms: Resazurin is reduced to fluorescent resorufin, in cell work by metabolically active cells.
Assay [13] concerns HEK293. The experiment in a line: SAR Analysis of small molecule inhibitors of B-cell specific antigen receptor-induced NF-kB activation in a HEK-293T cell line using a luminescence assay - Set 2. [Related pubchem assays (depositor defined):AID435022, AID435025, AID489021]. In kind it is functional, cell-based. To be noted: Homo sapiens.
For assay [14], the target named is Beta-adrenergic receptor kinase 1 (Homo sapiens, UniProt P25098). Put plainly: blockers of aptamer binding to GRK2 – biochemical, flow cytometry beads, FAM-aptamer, powder set 1, dose response (AID 588720). (In general: A flow cytometer gives signals particle by particle.)
Assay [15] has as its target T6, Apoptotic protease-activating factor 1 (Homo sapiens, UniProt O14727).
T6 sequence (O14727 whole entry): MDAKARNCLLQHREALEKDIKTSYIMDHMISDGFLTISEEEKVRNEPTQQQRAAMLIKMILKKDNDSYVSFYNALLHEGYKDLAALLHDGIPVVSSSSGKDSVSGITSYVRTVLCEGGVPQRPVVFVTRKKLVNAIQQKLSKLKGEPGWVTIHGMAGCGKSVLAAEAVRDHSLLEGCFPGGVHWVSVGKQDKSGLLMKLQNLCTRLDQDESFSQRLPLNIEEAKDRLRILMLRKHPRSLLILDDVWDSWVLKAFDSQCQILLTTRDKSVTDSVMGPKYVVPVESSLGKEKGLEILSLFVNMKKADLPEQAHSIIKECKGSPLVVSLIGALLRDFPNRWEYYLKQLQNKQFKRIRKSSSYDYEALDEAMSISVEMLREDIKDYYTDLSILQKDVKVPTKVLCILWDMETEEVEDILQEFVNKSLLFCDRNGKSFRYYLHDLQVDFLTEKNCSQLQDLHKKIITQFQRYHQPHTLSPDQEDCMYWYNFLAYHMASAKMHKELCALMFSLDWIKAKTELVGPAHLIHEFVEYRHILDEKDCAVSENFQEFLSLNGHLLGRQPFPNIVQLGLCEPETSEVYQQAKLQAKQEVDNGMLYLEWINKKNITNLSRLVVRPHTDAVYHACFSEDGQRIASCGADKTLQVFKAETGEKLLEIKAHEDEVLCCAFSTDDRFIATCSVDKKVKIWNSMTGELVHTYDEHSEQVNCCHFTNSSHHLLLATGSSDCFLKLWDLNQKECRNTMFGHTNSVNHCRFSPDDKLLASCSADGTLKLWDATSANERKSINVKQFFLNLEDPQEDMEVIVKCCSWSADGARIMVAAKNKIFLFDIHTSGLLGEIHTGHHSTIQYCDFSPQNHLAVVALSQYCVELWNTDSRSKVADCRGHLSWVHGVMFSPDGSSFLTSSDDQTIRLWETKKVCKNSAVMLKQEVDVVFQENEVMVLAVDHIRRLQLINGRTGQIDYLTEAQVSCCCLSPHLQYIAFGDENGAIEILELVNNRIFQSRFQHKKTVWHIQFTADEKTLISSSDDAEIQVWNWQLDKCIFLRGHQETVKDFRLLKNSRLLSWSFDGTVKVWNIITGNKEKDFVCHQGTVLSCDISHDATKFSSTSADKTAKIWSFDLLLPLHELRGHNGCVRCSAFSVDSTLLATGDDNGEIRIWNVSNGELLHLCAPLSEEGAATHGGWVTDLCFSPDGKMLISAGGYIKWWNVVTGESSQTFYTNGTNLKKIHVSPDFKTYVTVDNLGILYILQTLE
The experiment in a line: activation of Apaf-1 mediated apoptosis – fluorescent, uHTS hits, dose response (AID 588554). The format is functional.

Assay [16] concerns the target T7, Small ubiquitin-related modifier 1 (Homo sapiens, UniProt P63165). The experiment in a line: SUMO1 protein-protein binding blockers, potency – biochemical, FRET, dose response (AID 624383). Particulars: read-out: IC50_Mean. In kind it is functional.
For assay [17], the target named is T7, Small ubiquitin-related modifier 1. The experiment in a line: SUMO1 protein interaction blockers, potency – biochemical, fluorescence polarization, uHTS hits, dose response (AID 624382). In kind it is functional. Particulars: read-out: IC50_Mean.

T7 sequence (P63165 whole entry): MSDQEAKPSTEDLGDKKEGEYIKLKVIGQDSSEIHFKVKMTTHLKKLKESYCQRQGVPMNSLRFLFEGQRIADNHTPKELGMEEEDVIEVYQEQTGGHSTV
T5 sequence (Q9UBE0 whole entry): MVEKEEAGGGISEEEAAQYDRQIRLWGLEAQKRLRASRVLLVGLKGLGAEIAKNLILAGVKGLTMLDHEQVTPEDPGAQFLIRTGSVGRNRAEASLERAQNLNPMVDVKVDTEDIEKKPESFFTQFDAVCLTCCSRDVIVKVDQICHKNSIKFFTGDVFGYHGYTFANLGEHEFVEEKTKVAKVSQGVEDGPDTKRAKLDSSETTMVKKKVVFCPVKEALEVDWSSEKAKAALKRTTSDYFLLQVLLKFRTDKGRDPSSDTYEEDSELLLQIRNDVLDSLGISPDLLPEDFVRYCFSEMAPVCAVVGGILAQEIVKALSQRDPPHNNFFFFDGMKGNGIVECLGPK
T5 sequence (Q9UBT2 whole entry): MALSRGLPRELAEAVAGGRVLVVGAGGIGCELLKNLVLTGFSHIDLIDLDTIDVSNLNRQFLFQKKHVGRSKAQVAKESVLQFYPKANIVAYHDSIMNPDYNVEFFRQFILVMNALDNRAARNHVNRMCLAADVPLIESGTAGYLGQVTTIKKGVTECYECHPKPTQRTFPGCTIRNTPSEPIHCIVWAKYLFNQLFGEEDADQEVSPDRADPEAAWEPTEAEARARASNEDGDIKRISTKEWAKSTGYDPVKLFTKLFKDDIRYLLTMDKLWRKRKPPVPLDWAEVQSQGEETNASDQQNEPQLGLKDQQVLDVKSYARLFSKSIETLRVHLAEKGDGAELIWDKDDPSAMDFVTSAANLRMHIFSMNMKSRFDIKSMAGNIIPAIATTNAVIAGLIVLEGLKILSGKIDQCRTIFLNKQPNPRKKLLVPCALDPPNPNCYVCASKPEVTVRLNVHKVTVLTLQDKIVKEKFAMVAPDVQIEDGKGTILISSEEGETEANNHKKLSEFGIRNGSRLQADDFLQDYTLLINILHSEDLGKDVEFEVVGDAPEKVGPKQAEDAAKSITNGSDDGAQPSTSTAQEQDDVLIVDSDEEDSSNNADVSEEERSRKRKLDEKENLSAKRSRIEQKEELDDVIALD
Chain of Dual specificity protein phosphatase 6 (Q64346 whole entry): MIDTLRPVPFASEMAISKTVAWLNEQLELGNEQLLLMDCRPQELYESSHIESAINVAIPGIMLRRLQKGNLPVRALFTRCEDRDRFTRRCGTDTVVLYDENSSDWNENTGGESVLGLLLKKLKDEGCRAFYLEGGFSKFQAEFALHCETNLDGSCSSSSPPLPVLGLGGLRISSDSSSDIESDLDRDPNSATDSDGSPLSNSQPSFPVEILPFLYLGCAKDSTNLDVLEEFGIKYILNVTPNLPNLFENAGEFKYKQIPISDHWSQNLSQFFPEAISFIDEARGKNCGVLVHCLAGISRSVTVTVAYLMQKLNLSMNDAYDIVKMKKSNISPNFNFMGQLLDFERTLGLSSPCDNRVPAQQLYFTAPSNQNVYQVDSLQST
Chain of Arf-GAP with SH3 domain, ANK repeat and PH domain-containing protein 1 (Q9ULH1 whole entry, the tested form may be a part): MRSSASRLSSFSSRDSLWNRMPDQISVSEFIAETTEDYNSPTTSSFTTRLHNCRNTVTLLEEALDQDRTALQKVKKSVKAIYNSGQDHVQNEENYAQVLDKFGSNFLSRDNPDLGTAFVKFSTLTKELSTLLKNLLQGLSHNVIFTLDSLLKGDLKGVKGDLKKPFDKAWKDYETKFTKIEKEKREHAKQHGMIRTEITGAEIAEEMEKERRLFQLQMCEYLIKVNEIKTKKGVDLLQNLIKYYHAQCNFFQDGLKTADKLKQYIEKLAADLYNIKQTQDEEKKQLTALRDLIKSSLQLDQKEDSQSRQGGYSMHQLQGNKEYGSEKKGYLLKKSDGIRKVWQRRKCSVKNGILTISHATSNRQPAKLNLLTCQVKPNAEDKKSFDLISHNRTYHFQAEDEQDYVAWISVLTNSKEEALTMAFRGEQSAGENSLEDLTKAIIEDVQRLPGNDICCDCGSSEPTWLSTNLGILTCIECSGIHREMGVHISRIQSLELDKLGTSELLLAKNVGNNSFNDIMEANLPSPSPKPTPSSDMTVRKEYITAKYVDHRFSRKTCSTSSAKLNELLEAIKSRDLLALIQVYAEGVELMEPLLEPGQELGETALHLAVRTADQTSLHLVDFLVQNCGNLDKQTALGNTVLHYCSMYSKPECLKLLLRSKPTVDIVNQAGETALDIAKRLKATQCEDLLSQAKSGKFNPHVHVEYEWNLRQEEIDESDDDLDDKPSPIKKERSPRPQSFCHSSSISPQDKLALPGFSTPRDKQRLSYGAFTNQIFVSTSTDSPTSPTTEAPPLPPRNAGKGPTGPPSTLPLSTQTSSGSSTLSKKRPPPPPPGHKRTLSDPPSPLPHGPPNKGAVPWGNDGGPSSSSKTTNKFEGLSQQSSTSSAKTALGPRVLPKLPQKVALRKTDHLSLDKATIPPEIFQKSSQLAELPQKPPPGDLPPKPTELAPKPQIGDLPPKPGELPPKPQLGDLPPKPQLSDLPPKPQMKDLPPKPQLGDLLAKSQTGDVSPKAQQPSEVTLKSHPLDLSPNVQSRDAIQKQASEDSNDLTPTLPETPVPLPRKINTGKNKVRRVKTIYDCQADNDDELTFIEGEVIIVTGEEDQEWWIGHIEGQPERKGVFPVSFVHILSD
Chain of Beta-adrenergic receptor kinase 1 (P25098 whole entry): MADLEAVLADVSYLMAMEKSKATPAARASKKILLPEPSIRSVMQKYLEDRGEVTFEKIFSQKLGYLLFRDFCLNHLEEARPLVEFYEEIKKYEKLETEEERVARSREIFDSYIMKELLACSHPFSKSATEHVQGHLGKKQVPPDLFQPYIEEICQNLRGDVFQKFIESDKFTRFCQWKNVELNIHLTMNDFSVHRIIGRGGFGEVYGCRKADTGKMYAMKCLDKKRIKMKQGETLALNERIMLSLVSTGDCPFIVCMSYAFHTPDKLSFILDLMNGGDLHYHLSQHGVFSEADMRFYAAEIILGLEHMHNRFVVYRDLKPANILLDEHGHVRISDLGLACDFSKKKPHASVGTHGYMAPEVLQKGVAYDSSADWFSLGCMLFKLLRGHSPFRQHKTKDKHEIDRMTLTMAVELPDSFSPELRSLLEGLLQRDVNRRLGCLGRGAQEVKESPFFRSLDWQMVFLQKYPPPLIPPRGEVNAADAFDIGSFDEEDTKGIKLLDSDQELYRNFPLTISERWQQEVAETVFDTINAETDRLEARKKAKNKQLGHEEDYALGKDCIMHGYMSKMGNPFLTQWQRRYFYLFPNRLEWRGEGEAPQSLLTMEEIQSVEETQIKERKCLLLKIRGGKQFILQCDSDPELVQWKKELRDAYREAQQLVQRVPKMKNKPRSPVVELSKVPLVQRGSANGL
Chain of Dual specificity protein phosphatase 3 (P51452 whole entry): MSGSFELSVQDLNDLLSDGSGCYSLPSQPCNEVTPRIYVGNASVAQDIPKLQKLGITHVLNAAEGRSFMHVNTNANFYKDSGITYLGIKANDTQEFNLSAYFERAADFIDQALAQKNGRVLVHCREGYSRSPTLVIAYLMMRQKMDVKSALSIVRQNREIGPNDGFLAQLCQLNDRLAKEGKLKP

Turning to `Cc1ccc(NC(=O)CN2C(=O)S/C(=C\c3cc(Cl)c(OCC(=O)O)c(Cl)c3)C2=O)cc1`, the IC50 in assay [1] was 0.819 µM (active); in [2] it was 6.61 µM (active); in [3], 2.5 µM (active); in assay [4], 17.8 µM (active); in assay [5], 0.596 µM (active); in [6], 3.55 µM (active). Also, the IC50 in [7] is 2.79 µM (active); in assay [8] it was 4.09 µM (active); on SUMO-activating enzyme [9], 13.5 µM (active); on SUMO-activating enzyme [10] it was 8.11 µM (active); in [11] it was 3.95 µM (active).
For the compound `CCOc1ccc(-c2noc(CCC(=O)NC)n2)cc1`, the IC50 in the assay with Jurkat, in the assay on HEK293 [12] and in the assay with HEK293 [13] was > 80 µM (inactive) in each case.
One may read the EC50 as the concentration giving half of the maximal effect. Consider `CCOc1ccccc1NC(=O)CCS(=O)(=O)c1ccc(Br)cc1`, for which the half-maximal effective concentration (EC50) in [14] was 0.337 µM (active); in assay [15], 11.6 µM (active). The IC50 was 4.09 µM (active) in assay [3], 6.76 µM (active) in assay [16] and > 66.6 µM (inactive) in [17].
